Assay results reported in patent publication US3932471A, “Azide” (priority 1973, dated 1976).
Converted amounts (≈) assume the structure as drawn.

Columns and labels:
Format in all cases: in vivo
[1] = system: Southern army worm (Prodenia eridania); assay: Southern army worm spray test (AW); conditions: 72 h; contact activity rating, 50% mortality, three days
Experimental: (§1) The compounds are evaluated for biological activity against the following representative pests: Mexican bean beetle (Epilachna varivestis), Southern army worm (Prodenia eridania), housefly (Musca domestica), bean aphid (Aphis fabae), and red spider mite (Tetranychus sp.). The last two pests are treated both by contact and systemic application.
(§2) For purposes of comparison, results obtained with known Compound 7472, Compound 7577, and aldicarb are included in the test results. Each test compound is rated using the following scale:
Southern Army Worm Spray Test
Paired fully expanded primary leaves excised from Scarlet runner bean plants are maintained in plastic tubes containing water and sprayed with the test formulation prepared as described in Example 15. After the spray deposit on the leaves is dry, the paired leaves are separated. One leaf is placed onto 1.5 percent water agar and infested with 10 newly hatched Southern army worm larvae. The covered test receptacle is held at 72° F for three days and then the percent mortality is determined. Results of this test are shown in Table 7 as AW (Southern army worm spray test).

[2] = system: housefly (Musca domestica); assay: Housefly spray test (HF); conditions: 72 h, contact activity rating, 50% mortality, three days
Experimental: as §1, §2
This test determines the insecticidal activity of the compound being tested against adult houseflies, Musca domestica. Stock formulations containing 500 ppm of each test chemical are prepared using the procedure described in Example 15 and are diluted to obtain the appropriate lower concentrations.
Ten adult flies are placed in a cylindrical screen cage 11/2 by 4 inches fabricated from 20-mesh stainless steel screening and are sprayed with 50 ml of the stock or diluted formulation. The flies are supplied food and drink from a dextrose solution by draping a paper wick over the outside of the screen cylinder and are able to feed and drink ad libitum. Percent mortality obtained is determined three days after treatment. Results of this test are shown in Table 7 as HF (housefly spray test).

Lygus Bug = assay: Systemic test against Lygus bug
Excerpt: (§3) Systemic Test of Compound 7268 Against Lygus Bug and Spotted Cucumber Beetle
(§4) The techniques used are essentially the same for the systemic tests described above in Example 15. The test compound is Compound 7268. There is one Sieva bean plant per pot and five adult insects are caged on each plant. One plant is used for each test species.

Spotted Cucumber Beetle = assay: Systemic test against spotted cucumber beetle; conditions: Diabrotica undecimpunctata
Excerpt: as §3, §4

[3] = system: Southern corn rootworm (Diabrotica undecimpunctata howardi); assay: Soil activity against Southern corn rootworm; conditions: 120 h
Experimental: Activity of Compound 7268 Against Southern Corn Rootworm
The test organism is a strain of Southern corn rootworm (Diabrotica undecimpunctata howardi) resistant to chlorinated hydrocarbon insecticides and the test compound is Compound 7268. Duplicate samples of sand-soil mixtures are treated with appropriate volumes of test formulation to give the desired dosages. The sand-soil samples are in covered paper cups, and several hours after drenching, all cups are given a thorough shaking to provide complete and uniform mixing of the chemical throughout the soil. One day after treatment, two corn seedlings and five rootworms are placed into each cup and the lids replaced. Five days later, mortality is determined.

[4] = system: melon aphid (Aphis gosyppi); assay: Systemic activity against melon aphid; conditions: cucumber seedlings
Excerpt: Systemic Activity of Compound 7268 Against Melon Aphid
The techniques used are essentially the same as for the systemic tests described above in Example 15. The test plants are cucumber seedlings; the test compound is Compound 7268; and the pest is the melon aphid (Aphis gosyppi).

[5] = system: Mexican Bean Beetle Larvae; assay: Residual systemic activity against Mexican bean beetle larvae; conditions: Epilachna varivestis
Excerpt: Residual Systemic Activity of Compound 7268 Against Mexican Bean Beetle Larvae
Three furrows are opened in soil contained in 8 × 10 × 3 inch fiber pans and 12 Pinto bean seeds are evenly distributed in each furrow. The test compound is Compound 7268. Appropriate volumes of test formulation to give the desired dosages are applied over the seeds in the open furrows, and the furrows are immediately closed. At the indicated weekly intervals, one leaf is harvested from each row, placed onto water agar in a plastic Petri dish, and infested with 10 one-day-old bean beetle larvae. Mortality is determined three days later.

SMILES: CNC(=O)ON=C(CSC)C(C)(C)C [Compound 7268, 3,3-dimethyl-2-methylcarbamyloximino-1-methylthiobutane]
- LC50 [1]: > 500 µg/mL
- LC50 [2]: 250 to 500 µg/mL (≈ 1150 to 2290 µM)
- % Mortality (Lygus Bug; 0.5 lb/A, 3 days): 0%
- % Mortality (Lygus Bug; 0.5 lb/A, 4 days): 60%
- % Mortality (Lygus Bug; 0.5 lb/A, 6 days): 80%
- % Mortality (Lygus Bug; 1 lb/A, 3 days): 80%
- % Mortality (Lygus Bug; 1 lb/A, 4 days): 80%
- % Mortality (Lygus Bug; 1 lb/A, 6 days): 100%
- % Mortality (Lygus Bug; 2 lb/A, 3 days): 100%
- % Mortality (Lygus Bug; 2 lb/A, 4 days): 100%
- % Mortality (Lygus Bug; 2 lb/A, 6 days): 100%
- mortality at 560.425 g/ha (Spotted Cucumber Beetle; 72 h): 20%
- mortality at 1120.85 g/ha (Spotted Cucumber Beetle; 72 h): 30%
- mortality at 2241.7 g/ha (Spotted Cucumber Beetle; 72 h): 60%
- mortality at 560.425 g/ha (Spotted Cucumber Beetle; 96 h): 40%
- mortality at 1120.85 g/ha (Spotted Cucumber Beetle; 96 h): 100%
- mortality at 2241.7 g/ha (Spotted Cucumber Beetle; 96 h): 100%
- mortality at 560.425 g/ha (Spotted Cucumber Beetle; 144 h): 80%
- mortality at 1120.85 g/ha (Spotted Cucumber Beetle; 144 h): 100%
- mortality at 2241.7 g/ha (Spotted Cucumber Beetle; 144 h): 100%
- mortality at 1 lb/6" A [3]: 90%
- mortality at 1.25 lb/6" A [3]: 100%
- mortality at 2.5 lb/6" A [3]: 100%
- % Control ([4]; 0.062 lb/A): 100%
- % Control ([4]; 0.125 lb/A): 100%
- % Control ([4]; 0.25 lb/A): 100%
- % Control ([4]; 0.5 lb/A): 100%
- mortality at 280.212 g/ha ([5]; 504 h): 100%
- mortality at 560.425 g/ha ([5]; 504 h): 100%
- mortality at 1120.85 g/ha ([5]; 504 h): 100%
- mortality at 280.212 g/ha ([5]; 1176 h): 100%
- mortality at 560.425 g/ha ([5]; 1176 h): 100%
- mortality at 1120.85 g/ha ([5]; 1176 h): 100%
- mortality at 280.212 g/ha ([5]; 1680 h): 100%
- mortality at 560.425 g/ha ([5]; 1680 h): 100%
- mortality at 1120.85 g/ha ([5]; 1680 h): 95%
- mortality at 280.212 g/ha ([5]; 1848 h): 95%
- mortality at 560.425 g/ha ([5]; 1848 h): 70%
- mortality at 1120.85 g/ha ([5]; 1848 h): 95%
